Experiments:
GST-Bcl-2 = GST-Bcl-2 (Homo sapiens, UniProt P10415); assay: TR-FRET binding assay, GST-Bcl-2 with F-Bak peptide probe; settings: for Ki: TR-FRET Binding Affinity; for Binding selectivity ratio (Bcl-XL Ki/Bcl-2 Ki): TR-FRET, Bcl-XL Ki divided by Bcl-2 Ki
Outline: (§1)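 Compounds were serially diluted in DMSO from a 50 μM starting solution (2× the starting concentration; 10% DMSO). Plates were incubated for 3 h at room temperature, and TR-FRET was read with 340/35 nm excitation and emission at 520/525 nm (F-Bak) and 495/510 nm (Tb antibody). Ki values were calculated using Wang's competitive-binding equation.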

GST-Bcl-XL = GST-Bcl-XL (Homo sapiens, UniProt Q07817); assay: TR-FRET binding assay, GST-Bcl-XL with F-Bak peptide probe; settings: TR-FRET Binding Affinity
GST-Bcl-XL, sequence (Q07817 whole entry): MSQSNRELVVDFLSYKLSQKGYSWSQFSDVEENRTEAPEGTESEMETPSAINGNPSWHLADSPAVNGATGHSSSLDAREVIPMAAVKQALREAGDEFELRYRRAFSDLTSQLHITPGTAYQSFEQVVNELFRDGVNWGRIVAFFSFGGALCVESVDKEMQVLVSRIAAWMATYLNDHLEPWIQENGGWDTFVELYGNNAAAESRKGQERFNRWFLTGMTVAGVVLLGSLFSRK
Outline: as §1

GST-Bcl-2, sequence (P10415 whole entry): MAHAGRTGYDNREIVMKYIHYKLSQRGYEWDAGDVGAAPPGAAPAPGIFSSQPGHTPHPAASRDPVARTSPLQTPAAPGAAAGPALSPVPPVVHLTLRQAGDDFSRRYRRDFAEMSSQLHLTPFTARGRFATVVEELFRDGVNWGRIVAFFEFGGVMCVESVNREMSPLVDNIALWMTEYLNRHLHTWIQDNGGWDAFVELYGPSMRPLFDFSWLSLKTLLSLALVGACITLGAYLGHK

| Compound | Ki (GST-Bcl-2) | Binding selectivity ratio (Bcl-XL Ki/Bcl-2 Ki) (GST-Bcl-2) | Ki (GST-Bcl-XL) |
| --- | --- | --- | --- |
| CC1(C)CCC(CN2CCN(c3ccc(C(=O)NS(=O)(=O)c4ccc(OCC5(F)CCN(C6COC6)CC5)c(Cl)c4)c(Oc4cccc5[nH]ncc45)c3)CC2)=C(c2ccc(Cl)cc2)C1 [Example 517, N-[(3-chloro-4-{[4-fluoro-1-(oxetan-3-yl)piperidin-4-yl]methoxy}phenyl)sulfonyl]-4-(4-{[2-(4-chlorophenyl)-4,4-dimethylcyclohex-1-en-1-yl]methyl}piperazin-1-yl)-2-(1H-indazol-4-yloxy)benzamide] | < 0.01 nM | >607.7 | 6.08 nM |
| CC1(C)CCC(CN2CCN(c3ccc(C(=O)NS(=O)(=O)c4cnc(OCC5(F)CCC(O)CC5)c(Cl)c4)c(Oc4cccc5[nH]ncc45)c3)CC2)=C(c2ccc(Cl)cc2)C1 (stereo not drawn) [Example 518, N-({5-chloro-6-[(cis-1-fluoro-4-hydroxycyclohexyl)methoxy]pyridin-3-yl}sulfonyl)-4-(4-{[2-(4-chlorophenyl)-4,4-dimethylcyclohex-1-en-1-yl]methyl}piperazin-1-yl)-2-(1H-indazol-4-yloxy)benzamide] | < 0.01 nM | >254.6 | 2.55 nM |
| CC1(C)CCC(CN2CCN(c3ccc(C(=O)NS(=O)(=O)c4ccc(OCC5(F)CCOCC5)c([N+](=O)[O-])c4)c(Oc4cccc5[nH]nnc45)c3)CC2)=C(c2ccc(Cl)cc2)C1 [Example 519, 2-(1H-benzotriazol-4-yloxy)-4-(4-{[2-(4-chlorophenyl)-4,4-dimethylcyclohex-1-en-1-yl]methyl}piperazin-1-yl)-N-({4-[(4-fluorotetrahydro-2H-pyran-4-yl)methoxy]-3-nitrophenyl}sulfonyl)benzamide] | 0.012 nM | 25935.4 | 311 nM |
| CC1(C)CCC(CN2CCN(c3ccc(C(=O)NS(=O)(=O)c4cnc(OC[C@@H]5C[C@H]6C[C@@H]5C[C@@]6(C)O)c(Cl)c4)c(Oc4cccc5[nH]ncc45)c3)CC2)=C(c2ccc(Cl)cc2)C1 [Example 520, N-[(5-chloro-6-{[(1R,2R,4R,5R)-5-hydroxy-5-methylbicyclo[2.2.1]hept-2-yl]methoxy}pyridin-3-yl)sulfonyl]-4-(4-{[2-(4-chlorophenyl)-4,4-dimethylcyclohex-1-en-1-yl]methyl}piperazin-1-yl)-2-(1H-indazol-4-yloxy)benzamide] | < 0.01 nM | >1537.8 | 15.4 nM |
| O=C(NS(=O)(=O)c1cnc(OCC2(F)CCOCC2)c(Cl)c1)c1ccc(N2CCN(CC3=C(c4ccc(Cl)cc4)CCC(F)(F)C3)CC2)cc1Oc1cccc2[nH]ncc12 [Example 521, N-({5-chloro-6-[(4-fluorotetrahydro-2H-pyran-4-yl)methoxy]pyridin-3-yl}sulfonyl)-4-(4-{[2-(4-chlorophenyl)-5,5-difluorocyclohex-1-en-1-yl]methyl}piperazin-1-yl)-2-(1H-indazol-4-yloxy)benzamide] | < 0.01 nM | >466.9 | 4.67 nM |
| O=C(NS(=O)(=O)c1cnc(OCC2(F)CCN(C3COC3)CC2)c(Cl)c1)c1ccc(N2CCN(CC3=C(c4ccc(Cl)cc4)CCC(F)(F)C3)CC2)cc1Oc1cccc2[nH]ncc12 [Example 522, N-[(5-chloro-6-{[4-fluoro-1-(oxetan-3-yl)piperidin-4-yl]methoxy}pyridin-3-yl)sulfonyl]-4-(4-{[2-(4-chlorophenyl)-5,5-difluorocyclohex-1-en-1-yl]methyl}piperazin-1-yl)-2-(1H-indazol-4-yloxy)benzamide] | < 0.01 nM | >207.9 | 2.08 nM |
| CC1(C)CCC(CN2CCN(c3ccc(C(=O)NS(=O)(=O)c4ccc(NCC5CCOCC5)c([N+](=O)[O-])c4)c(Oc4cccc5[nH]nnc45)c3)CC2)=C(c2ccc(Cl)cc2)C1 [Example 523, 2-(1H-benzotriazol-4-yloxy)-4-(4-{[2-(4-chlorophenyl)-4,4-dimethylcyclohex-1-en-1-yl]methyl}piperazin-1-yl)-N-({3-nitro-4-[(tetrahydro-2H-pyran-4-ylmethyl)amino]phenyl}sulfonyl)benzamide] | < 0.01 nM | >4944.4 | 49.4 nM |
| O=C(NS(=O)(=O)c1ccc(NCC2CCOCC2)c([N+](=O)[O-])c1)c1ccc(N2CCN(CC3=C(c4ccc(Cl)cc4)CCC(F)(F)C3)CC2)cc1Oc1cccc2[nH]ncc12 [Example 524, 4-(4-{[2-(4-chlorophenyl)-5,5-difluorocyclohex-1-en-1-yl]methyl}piperazin-1-yl)-2-(1H-indazol-4-yloxy)-N-({3-nitro-4-[(tetrahydro-2H-pyran-4-ylmethyl)amino]phenyl}sulfonyl)benzamide] | < 0.01 nM | >2218.4 | 22.2 nM |
| CC1(C)CCC(CN2CCN(c3ccc(C(=O)NS(=O)(=O)c4ccc(NC[C@H]5CC[C@](C)(O)CC5)c([N+](=O)[O-])c4)c(Oc4cccc5[nH]ncc45)c3)CC2)=C(c2ccc(Cl)cc2)C1 [Example 525, 4-(4-{[2-(4-chlorophenyl)-4,4-dimethylcyclohex-1-en-1-yl]methyl}piperazin-1-yl)-N-[(4-{[(trans-4-hydroxy-4-methylcyclohexyl)methyl]amino}-3-nitrophenyl)sulfonyl]-2-(1H-indazol-4-yloxy)benzamide] | < 0.01 nM | >1898.4 | 19 nM |
| CC1(C)CCC(CN2CCN(c3ccc(C(=O)NS(=O)(=O)c4ccc(NC[C@H]5CC[C@@](C)(O)CC5)c([N+](=O)[O-])c4)c(Oc4cccc5[nH]ncc45)c3)CC2)=C(c2ccc(Cl)cc2)C1 [Example 526, 4-(4-{[2-(4-chlorophenyl)-4,4-dimethylcyclohex-1-en-1-yl]methyl}piperazin-1-yl)-N-[(4-{[(cis-4-hydroxy-4-methylcyclohexyl)methyl]amino}-3-nitrophenyl)sulfonyl]-2-(1H-indazol-4-yloxy)benzamide] | < 0.01 nM | >467.9 | 4.68 nM |
| CC1(C)CCC(CN2CCN(c3ccc(C(=O)NS(=O)(=O)c4ccc(NC[C@H]5CN(C6CC6)CCO5)c([N+](=O)[O-])c4)c(Oc4cccc5[nH]nnc45)c3)CC2)=C(c2ccc(Cl)cc2)C1 [Example 527, 2-(1H-benzotriazol-4-yloxy)-4-(4-{[2-(4-chlorophenyl)-4,4-dimethylcyclohex-1-en-1-yl]methyl}piperazin-1-yl)-N-{[4-({[(2S)-4-cyclopropylmorpholin-2-yl]methyl}amino)-3-nitrophenyl]sulfonyl}benzamide] | < 0.01 nM | >421.9 | 4.22 nM |
| CC1(C)CCC(CN2CCN(c3ccc(C(=O)NS(=O)(=O)c4cnc(OCC5(F)CCN(C6COC6)CC5)c(Cl)c4)c(Oc4cccc5[nH]ncc45)c3)CC2)=C(c2ccc(Cl)cc2)C1 [Example 528, N-[(5-chloro-6-{[4-fluoro-1-(oxetan-3-yl)piperidin-4-yl]methoxy}pyridin-3-yl)sulfonyl]-4-(4-{[2-(4-chlorophenyl)-4,4-dimethylcyclohex-1-en-1-yl]methyl}piperazin-1-yl)-2-(1H-indazol-4-yloxy)benzamide] | < 0.01 nM | >366.9 | 3.67 nM |
| CC1(C)CCC(CN2CCN(c3ccc(C(=O)NS(=O)(=O)c4ccc(NC[C@H]5CN(C6CC6)CCO5)c([N+](=O)[O-])c4)c(Oc4cccc5[nH]ncc45)c3)CC2)=C(c2ccc(Cl)cc2)C1 [Example 529, 4-(4-{[2-(4-chlorophenyl)-4,4-dimethylcyclohex-1-en-1-yl]methyl}piperazin-1-yl)-N-{[4-({[(2S)-4-cyclopropylmorpholin-2-yl]methyl}amino)-3-nitrophenyl]sulfonyl}-2-(1H-indazol-4-yloxy)benzamide] | < 0.01 nM | >828.4 | 8.28 nM |
| CC1(C)CCC(CN2CCN(c3ccc(C(=O)NS(=O)(=O)c4ccc(NC[C@H]5CN(C6CC6)CCO5)c([N+](=O)[O-])c4)c(Oc4cccc5[nH]cnc45)c3)CC2)=C(c2ccc(Cl)cc2)C1 [Example 530, 2-(1H-benzimidazol-4-yloxy)-4-(4-{[2-(4-chlorophenyl)-4,4-dimethylcyclohex-1-en-1-yl]methyl}piperazin-1-yl)-N-{[4-({[(2S)-4-cyclopropylmorpholin-2-yl]methyl}amino)-3-nitrophenyl]sulfonyl}benzamide] | < 0.01 nM | >7666.0 | 76.7 nM |
| CC1(O)CCC(COc2ncc(S(=O)(=O)NC(=O)c3ccc(N4CCN(CC5=C(c6ccc(Cl)cc6)CCC(F)(F)C5)CC4)cc3Oc3cccc4[nH]ncc34)cc2Cl)CC1 (stereo not drawn) [Example 531, N-({5-chloro-6-[(trans-4-hydroxy-4-methylcyclohexyl)methoxy]pyridin-3-yl}sulfonyl)-4-(4-{[2-(4-chlorophenyl)-5,5-difluorocyclohex-1-en-1-yl]methyl}piperazin-1-yl)-2-(1H-indazol-4-yloxy)benzamide] | < 0.01 nM | >1257.8 | 12.6 nM |
| CC1(C)CCC(CN2CCN(c3ccc(C(=O)NS(=O)(=O)c4ccc(OCC5CCC(C)(O)CC5)c([N+](=O)[O-])c4)c(Oc4cccc5[nH]ncc45)c3)CC2)=C(c2ccc(Cl)cc2)C1 (stereo not drawn) [Example 532, 4-(4-{[2-(4-chlorophenyl)-4,4-dimethylcyclohex-1-en-1-yl]methyl}piperazin-1-yl)-N-({4-[(cis-4-hydroxy-4-methylcyclohexyl)methoxy]-3-nitrophenyl}sulfonyl)-2-(1H-indazol-4-yloxy)benzamide] | < 0.01 nM | >981.2 | 9.81 nM |
